Data: ChEMBL document CHEMBL1201862, “PubChem BioAssay data set” (2004)
Calls of active or inactive are those of the source.

How the values were obtained:
Hexokinase-1 = Hexokinase-1 (Homo sapiens, UniProt P19367); experiment: hexokinase 1 activators, dose response, selectivity assay for HKDC1 activator project, biochemical (AID 504762); format: functional
Nonstructural protein 1 = Nonstructural protein 1 (Influenza A virus, UniProt Q194T2); format: functional, Influenza A virus (A/California/07/2009(H1N1))
Chain of Nonstructural protein 1 (Q194T2 whole entry): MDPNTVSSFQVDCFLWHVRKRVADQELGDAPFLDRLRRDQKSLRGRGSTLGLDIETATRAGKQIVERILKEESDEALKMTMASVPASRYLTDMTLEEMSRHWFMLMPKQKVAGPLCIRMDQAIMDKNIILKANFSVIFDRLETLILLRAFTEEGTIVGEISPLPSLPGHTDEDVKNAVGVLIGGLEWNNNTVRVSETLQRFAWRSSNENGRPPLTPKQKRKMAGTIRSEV

Hexokinase HKDC1 = target: T1, Hexokinase HKDC1 (Homo sapiens, UniProt Q2TB90); experiment: HKDC1 hexokinase activators, dose response, biochemical, W721R variant (AID 504730); format: functional
T1 sequence (Q2TB90 whole entry): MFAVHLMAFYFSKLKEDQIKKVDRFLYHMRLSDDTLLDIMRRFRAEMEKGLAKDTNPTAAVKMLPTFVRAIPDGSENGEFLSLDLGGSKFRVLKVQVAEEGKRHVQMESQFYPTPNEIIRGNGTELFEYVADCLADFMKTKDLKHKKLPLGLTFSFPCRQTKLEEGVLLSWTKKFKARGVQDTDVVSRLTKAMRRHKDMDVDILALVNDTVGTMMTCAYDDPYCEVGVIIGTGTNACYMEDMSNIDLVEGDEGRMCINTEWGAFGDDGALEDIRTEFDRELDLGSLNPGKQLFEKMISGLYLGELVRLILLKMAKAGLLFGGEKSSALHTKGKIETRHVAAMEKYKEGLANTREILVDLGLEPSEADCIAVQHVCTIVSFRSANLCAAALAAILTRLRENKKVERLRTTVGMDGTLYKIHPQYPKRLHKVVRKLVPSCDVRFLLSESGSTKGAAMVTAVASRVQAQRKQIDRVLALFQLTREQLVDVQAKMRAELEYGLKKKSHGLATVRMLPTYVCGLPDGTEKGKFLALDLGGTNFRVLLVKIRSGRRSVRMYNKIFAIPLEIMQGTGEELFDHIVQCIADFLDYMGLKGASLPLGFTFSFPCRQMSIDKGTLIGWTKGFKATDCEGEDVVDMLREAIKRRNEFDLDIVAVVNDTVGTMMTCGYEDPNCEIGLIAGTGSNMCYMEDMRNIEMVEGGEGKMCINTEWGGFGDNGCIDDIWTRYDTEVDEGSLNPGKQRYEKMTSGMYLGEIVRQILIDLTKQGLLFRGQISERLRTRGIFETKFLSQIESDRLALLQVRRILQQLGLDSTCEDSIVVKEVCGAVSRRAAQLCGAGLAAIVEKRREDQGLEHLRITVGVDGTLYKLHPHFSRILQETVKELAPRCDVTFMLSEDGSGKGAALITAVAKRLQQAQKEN

[1] = THP-1 cell cytotoxicity, dose response, cytotoxicity control for Vif-APOBEC3G degradation inhibitor project, THP-1 cells (AID 1117359); format: functional; details: Human immunodeficiency virus 1, THP-1
[2] = target: DNA damage-inducible transcript 3 protein (Mus musculus, UniProt P35639); format: functional, Cricetulus griseus
Chain of DNA damage-inducible transcript 3 protein (P35639 whole entry): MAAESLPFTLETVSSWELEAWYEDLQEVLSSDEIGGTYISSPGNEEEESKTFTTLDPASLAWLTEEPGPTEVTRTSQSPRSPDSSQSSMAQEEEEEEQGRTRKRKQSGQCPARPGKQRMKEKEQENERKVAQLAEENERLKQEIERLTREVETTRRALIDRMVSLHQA

[3] = target: Tyrosine-protein phosphatase non-receptor type 12 (Homo sapiens, UniProt Q05209); experiment: SAR Selectivity Analysis of small molecule inhibitors of PEST using pCAP in a fluorescence assay. [Related pubchem assays (depositor defined):AID1779, AID1784, AID2135]; format: functional
Chain of Tyrosine-protein phosphatase non-receptor type 12 (Q05209 whole entry): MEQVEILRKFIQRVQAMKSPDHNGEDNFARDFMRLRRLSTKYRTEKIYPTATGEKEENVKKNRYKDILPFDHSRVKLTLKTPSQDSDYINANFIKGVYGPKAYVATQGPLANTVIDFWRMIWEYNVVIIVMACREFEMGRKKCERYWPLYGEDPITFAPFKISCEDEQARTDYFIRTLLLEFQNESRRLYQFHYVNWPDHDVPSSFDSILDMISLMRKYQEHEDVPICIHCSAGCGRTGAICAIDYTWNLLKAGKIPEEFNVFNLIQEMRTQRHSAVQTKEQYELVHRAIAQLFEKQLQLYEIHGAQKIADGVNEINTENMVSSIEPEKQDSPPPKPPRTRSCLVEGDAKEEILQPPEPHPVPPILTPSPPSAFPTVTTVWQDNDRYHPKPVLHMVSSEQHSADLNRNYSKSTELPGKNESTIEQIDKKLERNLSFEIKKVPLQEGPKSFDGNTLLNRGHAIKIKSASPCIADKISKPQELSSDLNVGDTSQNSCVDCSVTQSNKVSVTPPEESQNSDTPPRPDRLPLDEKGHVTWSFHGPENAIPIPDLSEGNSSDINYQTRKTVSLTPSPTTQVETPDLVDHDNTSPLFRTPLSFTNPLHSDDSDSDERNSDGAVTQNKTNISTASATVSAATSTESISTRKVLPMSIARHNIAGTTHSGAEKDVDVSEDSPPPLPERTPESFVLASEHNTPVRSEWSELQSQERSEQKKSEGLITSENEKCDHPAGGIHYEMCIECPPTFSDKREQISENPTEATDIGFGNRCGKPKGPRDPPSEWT

[4] = target: T2, Tyrosine-protein phosphatase non-receptor type 22 (Homo sapiens, UniProt Q9Y2R2); experiment: SAR LYP1 Fluorescent Assay using pCAP substrate for In Vitro dose response studies - Set 2. [Related pubchem assays (depositor defined):AID1779, AID1784, AID2135, AID449727]; format: functional
T2 sequence (Q9Y2R2 whole entry): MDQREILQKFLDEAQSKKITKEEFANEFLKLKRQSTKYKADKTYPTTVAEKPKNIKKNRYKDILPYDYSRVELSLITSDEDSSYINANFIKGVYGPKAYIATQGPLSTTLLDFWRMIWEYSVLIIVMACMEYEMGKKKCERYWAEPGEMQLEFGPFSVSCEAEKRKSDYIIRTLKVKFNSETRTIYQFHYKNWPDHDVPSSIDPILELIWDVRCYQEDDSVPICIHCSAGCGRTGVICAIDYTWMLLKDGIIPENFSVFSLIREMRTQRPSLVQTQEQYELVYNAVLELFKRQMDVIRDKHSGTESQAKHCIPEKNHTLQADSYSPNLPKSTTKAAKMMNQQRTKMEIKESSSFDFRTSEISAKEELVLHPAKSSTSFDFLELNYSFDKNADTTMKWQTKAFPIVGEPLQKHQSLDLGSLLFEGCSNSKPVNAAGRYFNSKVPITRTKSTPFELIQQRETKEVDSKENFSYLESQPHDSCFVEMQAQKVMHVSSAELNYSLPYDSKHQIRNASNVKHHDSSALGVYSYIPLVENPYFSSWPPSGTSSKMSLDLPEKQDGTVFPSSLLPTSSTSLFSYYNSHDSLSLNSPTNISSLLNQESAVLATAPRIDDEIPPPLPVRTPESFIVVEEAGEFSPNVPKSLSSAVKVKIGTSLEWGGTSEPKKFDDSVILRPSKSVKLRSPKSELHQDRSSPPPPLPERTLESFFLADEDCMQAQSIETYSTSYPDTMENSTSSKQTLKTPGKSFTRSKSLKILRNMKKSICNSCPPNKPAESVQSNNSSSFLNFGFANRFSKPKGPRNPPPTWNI

[5] = target: T2, Tyrosine-protein phosphatase non-receptor type 22; experiment: SAR LYP1 Fluorescent Assay using OMFP substrate for In Vitro dose response studies - Set 3. [Related pubchem assays (depositor defined):AID1779, AID1784, AID2140, AID2686]; format: functional
[6] = target: T2, Tyrosine-protein phosphatase non-receptor type 22; experiment: LYP (PTPN22) phosphatase inhibitor potency, SAR follow-up, biochemical, pCAP fluorogenic substrate, fluorescence, set 3 (AID 449727); format: functional
[7] = target: T2, Tyrosine-protein phosphatase non-receptor type 22; experiment: SAR LYP1 Fluorescent Assay using OMFP substrate for In Vitro dose response studies - Set 2. [Related pubchem assays (depositor defined):AID1779, AID1784, AID2140, AID449726, AID488869]; format: functional
[8] = target: T3, Tyrosine-protein phosphatase non-receptor type 7 (Homo sapiens, UniProt P35236); experiment: HePTP (PTPN7) phosphatase inhibitor potency, SAR follow-up, biochemical, set 2 (AID 449736); format: functional
T3 sequence (P35236 whole entry): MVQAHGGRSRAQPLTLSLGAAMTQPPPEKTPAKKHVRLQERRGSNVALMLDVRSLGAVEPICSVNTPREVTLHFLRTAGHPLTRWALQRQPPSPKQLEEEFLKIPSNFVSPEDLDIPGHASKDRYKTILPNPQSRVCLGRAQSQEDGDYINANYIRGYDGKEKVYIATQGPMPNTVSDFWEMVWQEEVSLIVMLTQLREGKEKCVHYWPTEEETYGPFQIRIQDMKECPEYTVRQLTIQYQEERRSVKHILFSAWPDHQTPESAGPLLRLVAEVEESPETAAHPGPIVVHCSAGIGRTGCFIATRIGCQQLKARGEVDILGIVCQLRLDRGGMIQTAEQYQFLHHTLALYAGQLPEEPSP

[9] = target: T4, Orexin/Hypocretin receptor type 1 (Homo sapiens, UniProt O43613); experiment: Homogeneous Time Resolved Fluorescence (HTRF)-based cell-based high throughput dose response assay for antagonists of the orexin 1 receptor (OX1R; HCRTR1). [Related pubchem assays (depositor defined):AID434989, AID435008, AID463079, AID485270, AID492963, AID492964, AID492965, AID493232, AID504717, AID504718]; format: functional
T4 sequence (O43613 whole entry): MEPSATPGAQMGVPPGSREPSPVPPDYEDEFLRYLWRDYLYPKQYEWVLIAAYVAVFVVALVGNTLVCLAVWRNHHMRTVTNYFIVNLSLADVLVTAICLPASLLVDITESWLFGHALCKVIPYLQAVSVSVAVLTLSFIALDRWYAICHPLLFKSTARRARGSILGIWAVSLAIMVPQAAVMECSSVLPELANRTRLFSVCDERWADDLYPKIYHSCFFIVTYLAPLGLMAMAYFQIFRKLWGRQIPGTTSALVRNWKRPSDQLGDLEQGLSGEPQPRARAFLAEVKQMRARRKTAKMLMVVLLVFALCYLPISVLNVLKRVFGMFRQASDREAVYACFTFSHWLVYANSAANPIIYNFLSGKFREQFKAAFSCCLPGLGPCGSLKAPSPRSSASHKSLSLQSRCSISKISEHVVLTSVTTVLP

Orexin receptor type 2 [10] = target: T5, Orexin receptor type 2 (Homo sapiens, UniProt O43614); experiment: Counterscreen assay for antagonists of the orexin 1 receptor (OX1R; HCRTR1): Homogeneous Time Resolved Fluorescence (HTRF)-based cell-based dose response assay for antagonists of the orexin 2 receptor (OX2R; HCRTR2), run by assay provider.; format: functional
T5 sequence (O43614 whole entry): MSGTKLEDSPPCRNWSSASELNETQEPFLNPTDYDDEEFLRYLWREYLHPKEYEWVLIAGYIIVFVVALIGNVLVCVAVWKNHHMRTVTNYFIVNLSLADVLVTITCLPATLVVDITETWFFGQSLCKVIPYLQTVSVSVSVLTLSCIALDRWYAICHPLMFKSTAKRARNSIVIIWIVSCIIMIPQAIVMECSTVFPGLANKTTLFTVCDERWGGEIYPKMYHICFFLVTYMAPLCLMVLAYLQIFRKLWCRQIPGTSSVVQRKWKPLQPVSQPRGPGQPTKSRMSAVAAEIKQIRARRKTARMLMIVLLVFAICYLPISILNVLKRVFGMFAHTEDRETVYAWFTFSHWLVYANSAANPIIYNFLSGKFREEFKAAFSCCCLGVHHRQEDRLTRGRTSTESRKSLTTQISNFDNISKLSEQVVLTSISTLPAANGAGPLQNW

[11] = Counterscreen for antagonists of the orexin 1 receptor (OX1R; HCRTR1): Fluorescence-based cell-based high throughput dose response assay to identify antagonists of the parental CHO cell line. [Related pubchem assays (depositor defined):AID434989, AID435008, AID463079, AID485270, AID492963, AID492964, AID492965, AID493232, AID504699, AID504701]; format: functional
CHO-K1 = experiment: Counterscreen for antagonists of the orexin 1 receptor (OX1R; HCRTR1): Homogeneous time resolved fluorescence (HTRF)-based cell-based dose response assay to identify antagonists of the parental CHO-K1 cell line. [Related pubchem assays (depositor defined):AID434989, AID435008, AID463079, AID485270, AID492963, AID492964, AID492965, AID493232, AID504699, AID504701]; format: functional; details: Cricetulus griseus;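 note: potency for inhibition of ATP-stimulated IP1 production as antagonists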
[12] = target: T4, Orexin/Hypocretin receptor type 1; experiment: Fluorescence-based cell-based high throughput dose response assay for antagonists of the orexin 1 receptor (OX1R; HCRTR1). [Related pubchem assays (depositor defined):AID434989, AID435008, AID463079, AID485270, AID492963, AID492964, AID492965, AID493232, AID504717, AID504718]; format: functional
Orexin receptor type 2 [13] = target: T5, Orexin receptor type 2; experiment: Counterscreen assay for antagonists of the orexin 1 receptor (OX1R; HCRTR1): Fluorescence-based cell-based dose response assay for antagonists of the orexin 2 receptor (OX2R; HCRTR2), run by assay provider.; format: functional
[14] = target: T6, Runt-related transcription factor 1/Core-binding factor subunit beta (Homo sapiens, UniProt Q01196+Q13951); experiment: inhibitors of RUNX1 Runt–CBFb-SMMHC binding, primary screen, biochemical, FRET, Cerulean-Runt, Venus-CBFb-SMMHC, uHTS (AID 1434); format: protein assay;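 note: partner is the CBFb-SMMHC leukemia fusion protein rather than wild-type CBFb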
T6 sequence (Q01196 whole entry, the tested form may be a part): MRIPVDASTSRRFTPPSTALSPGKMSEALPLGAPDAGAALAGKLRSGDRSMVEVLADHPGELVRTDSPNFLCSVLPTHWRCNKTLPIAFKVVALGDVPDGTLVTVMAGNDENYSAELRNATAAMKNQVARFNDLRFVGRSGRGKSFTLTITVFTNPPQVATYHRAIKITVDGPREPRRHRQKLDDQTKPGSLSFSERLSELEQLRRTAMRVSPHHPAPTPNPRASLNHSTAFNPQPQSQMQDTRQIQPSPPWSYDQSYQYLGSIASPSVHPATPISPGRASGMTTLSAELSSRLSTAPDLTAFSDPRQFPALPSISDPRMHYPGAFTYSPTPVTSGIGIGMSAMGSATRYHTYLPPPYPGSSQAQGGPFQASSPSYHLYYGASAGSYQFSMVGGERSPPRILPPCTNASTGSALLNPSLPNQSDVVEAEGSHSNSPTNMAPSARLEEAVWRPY
T6 sequence (Q13951 whole entry, the tested form may be a part): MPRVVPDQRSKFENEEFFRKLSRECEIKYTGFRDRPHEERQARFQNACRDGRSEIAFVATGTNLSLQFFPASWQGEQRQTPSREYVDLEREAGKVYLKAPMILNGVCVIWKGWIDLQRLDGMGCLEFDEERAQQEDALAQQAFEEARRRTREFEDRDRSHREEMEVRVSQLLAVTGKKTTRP

[15] = target: T6, Runt-related transcription factor 1/Core-binding factor subunit beta; experiment: inhibitors of RUNX1 Runt–CBFb-SMMHC binding, biochemical, TR-FRET (AID 1438); format: protein assay
[16] = NIH-3T3 fibroblast cytotoxicity, dose response, cytotoxicity control, cell-based, fluorescence, Alamar Blue, secondary assay (AID 2327); format: functional;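 note: NIH-3T3 mouse fibroblasts cultured with fluconazole at 8 µg/mL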
[17] = HEp-2 cell cytotoxicity, dose response, cytotoxicity control for RSV inhibitor project, HTS (AID 2410); format: functional; details: human respiratory syncytial virus
[18] = target: Peroxisome proliferator-activated receptor gamma (Homo sapiens, UniProt P37231); experiment: PPARg partial agonists, dose response, cell-based, luminescence, assay provider (AID 504447); format: functional
Chain of Peroxisome proliferator-activated receptor gamma (P37231 whole entry): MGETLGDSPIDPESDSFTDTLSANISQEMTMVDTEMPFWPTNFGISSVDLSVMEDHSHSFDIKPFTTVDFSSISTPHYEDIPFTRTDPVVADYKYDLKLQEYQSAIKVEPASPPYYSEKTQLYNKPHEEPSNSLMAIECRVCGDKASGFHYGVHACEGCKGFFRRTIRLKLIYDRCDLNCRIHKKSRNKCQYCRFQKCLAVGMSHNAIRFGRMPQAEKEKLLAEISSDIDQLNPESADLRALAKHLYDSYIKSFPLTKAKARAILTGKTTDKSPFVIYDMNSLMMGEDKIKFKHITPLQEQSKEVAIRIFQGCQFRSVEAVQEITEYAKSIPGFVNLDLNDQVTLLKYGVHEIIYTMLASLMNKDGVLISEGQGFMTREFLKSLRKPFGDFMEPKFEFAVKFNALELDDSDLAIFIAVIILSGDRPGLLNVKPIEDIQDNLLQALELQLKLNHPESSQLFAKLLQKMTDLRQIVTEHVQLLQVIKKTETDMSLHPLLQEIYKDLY

CAAX prenyl protease 2 = target: T7, CAAX prenyl protease 2 (Saccharomyces cerevisiae S288c, UniProt Q03530); format: biochemical
T7 sequence (Q03530 whole entry): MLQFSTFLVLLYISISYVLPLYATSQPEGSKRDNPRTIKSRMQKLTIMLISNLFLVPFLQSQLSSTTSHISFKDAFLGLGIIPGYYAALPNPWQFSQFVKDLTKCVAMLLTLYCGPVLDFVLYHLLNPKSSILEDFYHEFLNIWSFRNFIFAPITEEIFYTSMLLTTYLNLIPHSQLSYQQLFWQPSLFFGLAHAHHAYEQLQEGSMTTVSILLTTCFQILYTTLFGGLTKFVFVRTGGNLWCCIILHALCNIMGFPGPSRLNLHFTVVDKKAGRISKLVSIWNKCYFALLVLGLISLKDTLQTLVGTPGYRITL

[19] = mammalian cell cytotoxicity, dose response, cytotoxicity control, plate reader, cherry-pick samples (AID 504397); format: functional, cell-based
[20] = target: T8, E3 ubiquitin-protein ligase XIAP (Homo sapiens, UniProt P98170); experiment: Counter Screen using XIAP-Bir3 for Chemical Antagonists of Bir1/2 domains of IAP-family anti-apoptotic proteins. [Related pubchem assays (depositor defined):AID1018, AID1449, AID1514, AID1638, AID1749, AID1750, AID488957, AID488963]
T8 sequence (P98170 whole entry): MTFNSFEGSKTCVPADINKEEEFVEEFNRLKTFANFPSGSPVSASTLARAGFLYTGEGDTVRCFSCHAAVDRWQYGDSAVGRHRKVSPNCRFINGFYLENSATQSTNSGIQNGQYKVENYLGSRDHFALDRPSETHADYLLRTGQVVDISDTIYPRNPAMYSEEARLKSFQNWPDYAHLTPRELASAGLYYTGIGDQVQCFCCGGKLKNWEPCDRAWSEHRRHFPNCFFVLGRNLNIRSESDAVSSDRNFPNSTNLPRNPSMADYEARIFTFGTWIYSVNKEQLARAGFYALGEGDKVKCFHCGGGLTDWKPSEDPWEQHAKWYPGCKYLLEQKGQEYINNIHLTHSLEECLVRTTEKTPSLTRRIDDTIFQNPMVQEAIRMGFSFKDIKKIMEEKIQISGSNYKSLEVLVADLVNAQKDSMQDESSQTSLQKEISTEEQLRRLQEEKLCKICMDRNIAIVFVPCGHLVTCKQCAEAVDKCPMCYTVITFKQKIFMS

[21] = target: T8, E3 ubiquitin-protein ligase XIAP; experiment: XIAP antagonists, biochemical, IAP family, fluorescence polarization (AID 1018); format: functional

Chain of Hexokinase-1 (P19367 whole entry): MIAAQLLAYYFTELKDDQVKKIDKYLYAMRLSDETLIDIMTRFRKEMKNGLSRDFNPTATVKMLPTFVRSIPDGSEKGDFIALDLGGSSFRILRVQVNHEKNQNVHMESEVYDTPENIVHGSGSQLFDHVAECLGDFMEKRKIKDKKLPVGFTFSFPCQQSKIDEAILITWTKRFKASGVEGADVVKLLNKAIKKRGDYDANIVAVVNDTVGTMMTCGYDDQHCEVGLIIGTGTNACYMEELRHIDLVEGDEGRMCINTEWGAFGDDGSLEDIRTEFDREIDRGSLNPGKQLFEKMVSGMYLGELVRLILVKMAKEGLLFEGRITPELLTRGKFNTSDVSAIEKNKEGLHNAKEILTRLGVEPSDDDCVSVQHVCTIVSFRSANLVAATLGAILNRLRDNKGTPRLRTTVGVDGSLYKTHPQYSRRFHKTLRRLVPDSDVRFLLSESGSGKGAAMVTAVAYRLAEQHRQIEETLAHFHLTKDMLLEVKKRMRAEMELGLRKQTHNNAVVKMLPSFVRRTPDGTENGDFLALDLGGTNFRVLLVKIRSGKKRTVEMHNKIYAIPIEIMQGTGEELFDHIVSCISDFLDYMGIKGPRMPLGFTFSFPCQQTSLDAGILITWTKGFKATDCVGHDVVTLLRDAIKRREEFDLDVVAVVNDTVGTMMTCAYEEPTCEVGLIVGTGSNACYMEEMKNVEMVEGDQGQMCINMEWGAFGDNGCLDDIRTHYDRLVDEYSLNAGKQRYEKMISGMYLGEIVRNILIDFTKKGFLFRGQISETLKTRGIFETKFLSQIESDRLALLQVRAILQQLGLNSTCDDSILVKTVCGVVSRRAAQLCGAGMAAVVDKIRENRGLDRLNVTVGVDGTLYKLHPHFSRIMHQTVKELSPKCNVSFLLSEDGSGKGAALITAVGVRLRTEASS

CC(=NNC(=S)SCc1ccccc1)c1ccccn1
EC50 (Hexokinase-1): > 80 µM (inactive)
IC50 (Nonstructural protein 1): 12.2 µM (active)
EC50 (Hexokinase HKDC1): 1.61 µM (active)
CC50 [1]: < 0.08 µM (active)

COC(=O)Oc1ccc(/C=N/NC(=O)CSCc2ccccc2Br)cc1OC
Absolute IC50 (CHOP) [2]: 10 µM

O=C(O)COc1ccc(Nc2ccccc2)cc1
IC50 [3]: 45.1 µM (active)
IC50 [4]: > 100 µM (inactive)
IC50 [5]: > 100 µM (inactive)
IC50 [6]: > 100 µM (inactive)
IC50 [7]: > 100 µM (inactive)
IC50 [8]: 0.465 µM (active)

CSc1cccc(N2CC(C(=O)NCCN3C(=O)S/C(=C\c4cccnc4)C3=O)CC2=O)c1 (stereo unspecified)
IC50 [9]: 0.354 µM (active)
IC50 (Orexin receptor type 2 [10]): > 50 µM (inactive)
IC50 [11]: > 49.8 µM (inactive)
IC50 (CHO-K1): 10.5 µM (inactive)
IC50 [12]: 3.1 µM (active)
IC50 (Orexin receptor type 2 [13]): 20.6 µM (inactive)

O=C(CN1CCN(c2ccc(O)cc2)CC1)NC(c1ccccc1)c1ccccc1
IC50 [14]: > 100 µM (inactive)
IC50 [15]: > 100 µM (inactive)
EC50 [16]: 28.5 µM (active)

CCOc1ccc(C2c3[nH]c4ccccc4c3CCN2Cc2cccn2-c2ncccn2)cc1 (stereo unspecified)
CC50 [17]: 16 µM (active)
EC50 [18]: 1.6 µM (active)

O=C(c1cn(-c2ccccc2)nc1-c1cccs1)N1CCN(c2ccccn2)CC1
AC50 (CAAX prenyl protease 2): 3.87 µM (active)
AC50 [19]: > 350 µM (inactive)

CC(=O)NCCc1csc(-c2ccccc2)n1
IC50 [20]: > 100 µM (inactive)
IC50 [21]: > 100 µM (not active)
